Here are results for seven compounds from patent US9949970B2, “Synthesis of new benzothiazole derivatives as potential anti-tubercular agents” (priority 2010, dated 2018).

The subject of series [1] is M. tuberculosis H37Rv. Conditions: closest benzothiazole compounds; cited from earlier work.
For series [2], the system named is M. tuberculosis H37Rv. Kind of series: Antimycobacterial activity: MIC by broth microdilution / Nitrate Reductase Assay. Format: cell-based, Mycobacterium tuberculosis. Conditions: lowest concentration showing no colour change (NRA).
Series [3] deals with AML-12 cell lines. In words: Cytotoxicity MTT assay on AML-12 cell lines. Format: cell-based. As for the experimental part:
The potent compounds 3j, 4e, 6a, 6f, 6g, 6i, and 6p were evaluated for cytotoxic effect on AML-12 cell lines using MTT assay, in a 96 well plate format. Cells were incubated in Dulbecco's Modified Eagle's Medium (DMEM) containing 10% fetal calf serum (FCS) with the test material (2-100 μg/ml) for 24 hrs. at 37° C. in CO2 incubator. After the completion of incubation 3-(4,5-dimethylthiazol-2-yl)-2,5-diphenyltetrazolium bromide (MTT) was added and cells were further incubated for 3 h at 37° C. in CO2 incubator. Formation of formazan salt by mitochondrial dehydrogenases, and was determined by Elisa reader at 565 nm (Multiskan Spectrum; Thermo Electron Corporation, USA). The percentage cytotoxicity was calculated with respect to the untreated cells.

Series [4] concerns M. tuberculosis (H37Rv). In words: In vivo efficacy in lungs of infected mice. The arrangement: species or system Swiss albino mice. Conditions: 25 mg/kg.

Values after ≈ are worked out from the molar mass of the structure shown. Where two headings read alike, the source gives them in different places.

A word on the MIC: it is the least concentration at which growth counts as inhibited. For `COC(=O)[C@H](NC(=O)c1cc(COc2ccc3nc(C)sc3c2)on1)c1ccccc1`, the “MIC” value in series [1] is 1.9 µg/mL (≈ 4.34 µM).

Regarding `COC(=O)C(NC(=O)c1cc(COc2ccc3nc(C)sc3c2)on1)c1ccccc1` (stereo not drawn), the “MIC” value in series [1] was 1.4 µg/mL (≈ 3.2 µM). With `CC(=NNC1CSC(c2ccc3c(c2)CCC3)=N1)c1ccc(C)cc1` (stereo not drawn), in series [1], the “MIC” value was more than 6.5 µg/mL.

For the compound `O=[N+]([O-])c1cc(CSc2nc3ccccc3s2)cc([N+](=O)[O-])c1`, the “MIC” value in series [1] was 2 µg/mL (≈ 5.76 µM). Consider `O=[N+]([O-])c1ccc(CSc2nc3ccccc3s2)c([N+](=O)[O-])c1`, for which, in series [1], the “MIC” value was 2 µg/mL (≈ 5.76 µM). On to `Clc1ccccc1/C=N/c1nc2ccccc2s1`, for which the “MIC” value in series [1] is 73 µg/mL (≈ 268 µM).

Consider `O=C(Nc1ccc2nc(NC(=O)c3ccc(F)cc3F)sc2c1)c1ccc([N+](=O)[O-])o1` [Compound 6i, N2-{2-[(2,4-difluorobenzoyl)amino]-1,3-benzothiazol-6-yl}-5-nitrofuramide], for which the “MIC” value in series [2] turned out to be 0.5 µg/mL (≈ 1.13 µM). Moreover, the Cytotoxicity in series [3] (AML-12 cell line, MTT, 24 hrs, test material 2-100 μg/ml) was more than 100 µg/mL. In series [3] (AML-12 cell lines, MTT assay), the “Cytotoxicity (result in words)” value is reported as “no cytotoxicity”. The “In vivo activity (result in words)” value in series [4] (mice, lung) was “bacteriostatic activities”. Besides, the “Decrease of bacterial load in lung with late control (protections)” value in series [4] (mice, versus late control) is listed as 1.0. Also, the “Log10 CFU/left Lung” value in series [4] (infected female Swiss albino mice, left lung) was determined as 6.3 ± 0.37.
